{"source": "patent US20250049595A1", "about": "“ZOTAROLIMUS-ROSUVASTATIN ELUTING BIODEGRADABLE STENT” (priority 2023, published 2025)", "origin": "cited, not measured here", "conditions": "targeted by typical daily dose between 5 and 40 mg", "data": [{"compound": "CC(C)c1nc(N(C)S(C)(=O)=O)nc(-c2ccc(F)cc2)c1/C=C/[C@@H](O)C[C@@H](O)CC(=O)O", "note": "[Rosuvastatin]", "values": [{"measurement": "plasma concentration", "value": 0.5, "unit": "ng/mL"}]}]}
